Data from PubChem BioAssay (NCI).
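Assay format: 96-well plates, 48-hour exposure. Abbreviation: GI50, concentration required for 50% inhibition of growth. The concentration for full growth arrest is given as TGI.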

How the values were obtained:
Assay in all cases: NCI anticancer screen, dose series, 48 h
COLO 205 colon = system: COLO 205 colon
NCI/ADR-RES ovarian = system: NCI/ADR-RES ovarian
NCI-H522 lung = system: NCI-H522 lung
SR leukemia = system: SR leukemia
NCI-H23 lung = system: NCI-H23 lung
DU-145 prostate = system: DU-145 prostate
SW-620 colon = system: SW-620 colon
HOP-62 NSCLC = system: HOP-62 NSCLC
A498 renal = system: A498 renal
MALME-3M melanoma = system: MALME-3M melanoma

Structure (SMILES) | GI50 (COLO 205 colon) | TGI (COLO 205 colon) | GI50 (NCI/ADR-RES ovarian) | TGI (NCI/ADR-RES ovarian) | GI50 (NCI-H522 lung) | TGI (NCI-H522 lung) | GI50 (SR leukemia) | TGI (SR leukemia) | GI50 (NCI-H23 lung) | TGI (NCI-H23 lung) | GI50 (DU-145 prostate) | TGI (DU-145 prostate) | GI50 (SW-620 colon) | TGI (SW-620 colon) | GI50 (HOP-62 NSCLC) | TGI (HOP-62 NSCLC) | GI50 (A498 renal) | TGI (A498 renal) | TGI (MALME-3M melanoma) | GI50 (MALME-3M melanoma)
COc1cccc(NC(=O)c2sc3nc4c(cc3c2N)C(O)CCC4)c1 (stereo not given) | 0.226 µM | 0.87 µM | 0.206 µM | > 100 µM | 0.105 µM | 2.57 µM | 0.0432 µM | > 100 µM | 0.442 µM | > 100 µM | 0.292 µM | > 29.2 µM | 0.107 µM | > 100 µM | 0.26 µM | 64.6 µM | 0.112 µM | 4 µM | – | –
COc1ccc(-c2n[nH]nc2-c2cc(OC)c3c(c2)OCO3)cc1 | 0.206 µM | 1.17 µM | < 0.01 µM | 0.982 µM | < 0.01 µM | – | < 0.01 µM | 17.5 µM | 0.0314 µM | 29.6 µM | 0.0328 µM | 1.19 µM | < 0.0117 µM | > 100 µM | < 0.0135 µM | > 68.1 µM | < 0.01 µM | 0.0693 µM | – | –
Nc1ccccc1C(=O)NC(=O)Nc1ccc(Oc2ncc(Br)cn2)c(Cl)c1 | – | 0.421 µM | – | 0.391 µM | – | – | – | 1.5 µM | – | 4.86 µM | – | 1.52 µM | 0.0181 µM | 26.3 µM | – | 4.03 µM | – | 1.21 µM | 11.6 µM | –
CC/C(Cc1ccccc1)=C(/c1ccc(O)cc1)c1ccc(OCCN2CCCC2)cc1 | 1.76 µM | 3.39 µM | 2.1 µM | 5.44 µM | 1.89 µM | 3.67 µM | 1.35 µM | 3.2 µM | 1.72 µM | 3.53 µM | 1.94 µM | 3.88 µM | 1.84 µM | 3.63 µM | 1.9 µM | 3.58 µM | 1.27 µM | 2.72 µM | – | –
CCN(CC)c1nc(NC2CCCCC2)c2nc(N(CC)CC)nc(NC3CCCCC3)c2n1 | – | – | – | > 100 µM | – | – | – | > 100 µM | – | > 100 µM | – | > 100 µM | – | > 100 µM | – | > 100 µM | – | > 100 µM | > 100 µM | –
Cc1ccc(O)c(NC2=C(Cl)C(=O)N(Cc3ccccc3)C2=O)c1 | 28.4 µM | > 100 µM | 38.1 µM | > 100 µM | 13.1 µM | 29.9 µM | 18.3 µM | 84.9 µM | 25.8 µM | 68.6 µM | 27.8 µM | 95.9 µM | 32.5 µM | > 100 µM | 25.4 µM | 72.5 µM | – | – | 67.5 µM | 23 µM
COc1cc(NC(C)CCCNC(C)C)c2ncccc2c1OC (stereo not given) | 14 µM | 39.1 µM | > 100 µM | > 100 µM | – | – | 70.8 µM | > 100 µM | > 100 µM | > 100 µM | > 100 µM | > 100 µM | 97.1 µM | > 100 µM | > 100 µM | > 100 µM | 0.416 µM | > 100 µM | > 100 µM | 42.3 µM
CCN(CC)c1ccc(/C=N/NC(=O)CSc2nc3ccccc3c(=O)n2Cc2ccc(S(N)(=O)=O)cc2)c(O)c1 | 1.51 µM | > 100 µM | > 100 µM | > 100 µM | 2.4 µM | > 100 µM | 0.212 µM | > 100 µM | 1.96 µM | > 100 µM | 0.944 µM | > 100 µM | 0.949 µM | > 100 µM | 0.961 µM | > 100 µM | – | – | > 100 µM | 1.09 µM
COc1cc(-c2cc3ncccc3c3[nH]c(=O)c4cccnc4c23)cc(OC)c1OC | 0.538 µM | > 100 µM | 0.482 µM | > 100 µM | 0.328 µM | 82.5 µM | 0.359 µM | 71.9 µM | 2.3 µM | > 100 µM | 0.907 µM | > 100 µM | 0.493 µM | > 100 µM | 7.76 µM | > 100 µM | – | – | > 100 µM | 16.2 µM
Cc1cn2c(/C=N/N=C(N)N)c(-c3ccncc3)nc2s1 | 17.5 µM | 33.3 µM | > 100 µM | > 100 µM | 17.7 µM | 59.7 µM | 5.3 µM | 17.5 µM | 16.6 µM | 30.2 µM | 16.4 µM | 31.2 µM | 18.9 µM | 33.8 µM | 14.9 µM | 28.1 µM | – | – | – | –
O=C(CN(/C=C/C(=O)C(F)(F)F)c1ccccc1)c1ccc(Cl)cc1 | 22.1 µM | 49.1 µM | 17.6 µM | 36 µM | 14.5 µM | 35.4 µM | – | – | 17.1 µM | 35.4 µM | 37.7 µM | > 100 µM | 22.1 µM | 45.8 µM | 17.2 µM | 31.8 µM | 20.4 µM | 42.2 µM | 40.7 µM | 18.1 µM
C[C@H](NC(=O)c1c(C(F)F)nn(C)c1Oc1cccc(C(F)(F)F)c1)c1ccc(C(=O)O)cc1 | > 100 µM | > 100 µM | > 100 µM | > 100 µM | > 100 µM | > 100 µM | – | – | > 100 µM | > 100 µM | > 100 µM | > 100 µM | > 100 µM | > 100 µM | > 100 µM | > 100 µM | > 100 µM | > 100 µM | > 100 µM | > 100 µM
